Among the data in US20050059726A1, “Pyrrolidine-2-ones as factor xa inhibitors” (priority 2001, published 2005) are Ki values, retold here.

The experiment has as its target human Factor Xa (Homo sapiens, UniProt P00742). Briefly: In vitro assay for inhibition of Factor Xa (2), fluorogenic assay. The format is biochemical. The following applies: substrate Rhodamine 110, bis-(CBZ-glycylglycyl-L-arginine amide 10 μM), Ki calculated from IC50. As for the experimental part:
In Vitro Assay for Inhibition of Factor Xa (2)
All other compounds of the present invention were tested for their Factor Xa inhibitory activity as determined in vitro by their ability to inhibit human Factor Xa in a fluorogenic assay, using Rhodamine 110, bis-(CBZ-glycylglycyl-L-arginine amide as the fluorogenic substrate. Compounds were diluted from a 10 mM stock solution in dimethylsulfoxide at appropriate concentrations. Assay was performed at room temperature using buffer consisting of: 50 mM Tris-HCl, 150 mM NaCl, 5 mM CaCl2, pH 7.4. containing human Factor Xa (final conc. Of 0.0003U.ml−1). Compound and enzyme were preincubated for 15 min prior to addition of the substrate (final conc. of 10 μM). The reaction was stopped after 3 hrs with the addition of H-D-PHE-PRO-ARG-Chloromethylketone. […] To obtain IC50 values the data were analysed using ActivityBase® and XLfit®.
Calculation of Ki values:
Ki=IC50/(1+[Substrate]/Km)
The Ki value for the above assay can be obtained by dividing the IC50 value by 1.6.

The term Ki denotes a dissociation constant, usually derived from enzyme kinetics or from competition with a known ligand.

Where a name gives a salt, the structure may show the parent alone.

Chain of human Factor Xa (P00742 235-488 limits assumed): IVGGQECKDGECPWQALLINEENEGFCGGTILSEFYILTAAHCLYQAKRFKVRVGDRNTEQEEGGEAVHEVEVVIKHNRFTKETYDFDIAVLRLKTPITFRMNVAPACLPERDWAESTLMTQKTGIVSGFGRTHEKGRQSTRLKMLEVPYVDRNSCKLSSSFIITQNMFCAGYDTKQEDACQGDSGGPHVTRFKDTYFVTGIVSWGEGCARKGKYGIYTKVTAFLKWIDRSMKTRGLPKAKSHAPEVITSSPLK
Chain of human Factor Xa (P00742 41-179 partner limits assumed): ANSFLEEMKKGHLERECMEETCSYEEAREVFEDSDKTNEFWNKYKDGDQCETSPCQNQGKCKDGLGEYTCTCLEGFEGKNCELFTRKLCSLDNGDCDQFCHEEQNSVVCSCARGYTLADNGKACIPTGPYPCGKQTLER

For `CS(=O)(=O)c1ccccc1-c1ccc(N2CC[C@H](NS(=O)(=O)c3cc4cc(Cl)ccc4o3)C2=O)c(F)c1` [Example 5, 5-Chloro-N-{(3S)-1-[3-fluoro-2′-(methylsulfonyl)-1,1′-biphenyl-4-yl]-2-oxopyrrolidin-3-yl}-1-benzofuran-2-sulfonamide], the Ki is below 0.01 µM.

With `CS(=O)(=O)c1ccccc1-c1ccc(N2CC[C@H](NS(=O)(=O)c3cccc4cnccc34)C2=O)c(F)c1` [Example 6, N-{(3S)-1-[3-Fluoro-2′-(methylsulfonyl)-1,1′-biphenyl-4-yl]-2-oxopyrrolidin-3-yl}isoquinoline-5-sulfonamide], the Ki is below 1 µM.

For `CS(=O)(=O)c1ccccc1-c1ccc(N2CC[C@H](NS(=O)(=O)/C=C/c3ccc(Cl)cc3)C2=O)c(F)c1` [Example 7, (E)-2-(4-Chlorophenyl)-N-{(3S)-1-[3-fluoro-2′-(methylsulfonyl)-1,1′-biphenyl-4-yl]-2-oxopyrrolidin-3-yl}ethenesulfonamide], the inhibition constant (Ki) was below 0.01 µM.

For the compound `CS(=O)(=O)c1ccccc1-c1ccc(N2CC[C@H](NS(=O)(=O)c3ccc(-c4ccc(Cl)s4)s3)C2=O)c(F)c1` [Example 8, 5′-Chloro-N-{(3S)-1-[3-fluoro-2′-(methylsulfonyl)-1,1′-biphenyl-4-yl]-2-oxopyrrolidin-3-yl}-2,2′-bithiophene-5-sulfonamide], the inhibition constant Ki was below 0.01 µM.

For `CN(C)c1ccc2cc(S(=O)(=O)N[C@H]3CCN(c4ccc(-c5ccccc5S(C)(=O)=O)cc4F)C3=O)ccc2c1` [Example 9, 6-(Dimethylamino)-N-{(3S)-1-[3-fluoro-2′-(methylsulfonyl)-1,1′-biphenyl-4-yl]-2-oxopyrrolidin-3-yl}naphthalene-2-sulfonamide], the inhibition constant Ki is below 1 µM.

Consider `CS(=O)(=O)c1ccccc1-c1ccc(N2CC[C@H](NS(=O)(=O)c3cc4ccc(Cl)cc4s3)C2=O)c(F)c1` [Example 11, 6-Chloro-N-{(3S)-1-[3-fluoro-2′-(methylsulfonyl)-1,1′-biphenyl-4-yl]-2-oxopyrrolidin-3-yl}-1-benzothiophene-2-sulfonamide], for which the inhibition constant (Ki) is below 0.01 µM.

`CS(=O)(=O)c1ccccc1-c1ccc(N2CC[C@H](NS(=O)(=O)c3cc4cc(Cl)ccc4s3)C2=O)c(F)c1` [Example 12, 5-Chloro-N-{(3S)-1-[3-fluoro-2′-(methylsulfonyl)-1,1′-biphenyl-4-yl]-2-oxopyrrolidin-3yl}-1-benzothiophene-2-sulfonamide]: the Ki was below 0.01 µM.

With `NS(=O)(=O)c1ccccc1-c1ccc(N2CC[C@H](NS(=O)(=O)c3cc4ccc(Cl)cc4s3)C2=O)c(F)c1` [Example 15, N-{(3S)-1-[2′-(Aninosulfonyl)-3-fluoro-1,1′-biphenyl-4-yl]-2-oxopyrrolidin-3-yl}-6-chloro-1-benzothiophene-2-sulfonamide], the inhibition constant Ki is below 0.01 µM.

`C/C(=C\S(=O)(=O)N[C@H]1CCN(c2ccc(-c3ccccc3S(N)(=O)=O)cc2F)C1=O)c1ccc(Cl)s1` [Example 16, 4′-[(3S)-3-({[(1E)-2-(5-Chlorothien-2-yl)prop-1-enyl]sulfonyl}amino)-2-oxopyrrolidin-1-yl]-3′-fluoro-1,1′-biphenyl-2-sulfonamide]: the Ki is below 0.01 µM.

For `O=C1[C@@H](NS(=O)(=O)/C=C/c2ccc(Cl)s2)CCN1c1ccc(-c2ccccc2[N+](=O)[O-])cn1` [Example 17, (E)-2-(5-Chlorothien-2-yl)-N-{(3S)-1-[5-(2-nitrophenyl)pyridin-2-yl]-2-oxopyrrolidin-3-yl}ethenesulfonamide], the Ki is below 0.01 µM.

With `O=C1[C@@H](NS(=O)(=O)/C=C/c2ccc(Cl)s2)CCN1c1ccc(-c2ccccc2[N+](=O)[O-])cc1F` [Example 18, (E)-2-(5-Chlorothien-2-yl)-N-[(3S)-1-(3-fluoro-2′-nitro-1,1′-biphenyl-4-yl)-2-oxopyrrolidin-3-yl]ethenesulfonamide], the Ki was below 0.01 µM.

On to `O=C1[C@@H](NS(=O)(=O)/C=C/c2ccc(Cl)s2)CCN1c1ccc(-c2ccccc2C(F)(F)F)cn1` [Example 24, (E)-2-(5-Chlorothien-2-yl)-N-((3S)-2-oxo-1-{5-[2-(trifluoromethyl)phenyl]pyridin-2-yl}pyrrolidin-3yl)ethenesulfonamide], for which the Ki was below 0.01 µM.

With `CN(C)C(=O)c1ccccc1-c1ccc(N2CC[C@H](NS(=O)(=O)/C=C/c3ccc(Cl)s3)C2=O)nc1` [Example 25, 2-{6-[(3S)-3-({[(E)-2-(5-Chlorothien-2-yl)ethenyl]sulfonyl}amino)-2-oxopyrrolidin-1-yl]pyridin-3-yl}-N,N-dimethylbenzamide], the Ki is below 0.02 µM.

As for `N#Cc1ccccc1-c1ccc(N2CC[C@H](NS(=O)(=O)/C=C/c3ccc(Cl)s3)C2=O)nc1` [Example 26, (E)-2-(5-Chlorothien-2-yl)-N-{(3S)-1-[5-(2-cyanophenyl)pyridin-2yl]-2-oxopyrrolidin-3-yl}ethenesulfonamide], the inhibition constant Ki was below 0.01 µM.

As for `CN(C)S(=O)(=O)c1ccccc1-c1ccc(N2CC[C@H](NS(=O)(=O)/C=C/c3ccc(Cl)s3)C2=O)nc1` [Example 28], the inhibition constant (Ki) is below 0.01 µM.

In the case of `CNS(=O)(=O)c1ccccc1-c1ccc(N2CC[C@H](NS(=O)(=O)/C=C/c3ccc(Cl)s3)C2=O)nc1` [Example 29, 2-{6-[(3S)-3-({[(E)-2-(5-Chlorothien-2-yl)ethenyl]sulfonyl}amino)-2-oxopyrrolidin-1-yl]pyridin-3-yl}-N-methylbenzenesulfonamide], the Ki was below 0.01 µM.

On to `CN(c1ccccc1-c1ccc(N2CC[C@H](NS(=O)(=O)/C=C/c3ccc(Cl)s3)C2=O)nc1)S(C)(=O)=O` [Example 30, (E)-2-(5-Chlorothien-2-yl)-N-[(3S)-1-(5-{2-[methyl(methylsulfonyl)amino]phenyl}pyridin-2-yl)-2-oxopyrrolidin-3yl]ethenesulfonamide], for which the Ki was below 0.01 µM.

`CC(C)Oc1ccccc1-c1ccc(N2CC[C@H](NS(=O)(=O)/C=C/c3ccc(Cl)s3)C2=O)nc1` [Example 31, (E)-2-(5-Chlorothien-2-yl)-N-{(3S)-1-[5-(2-isopropoxyphenyl)pyridin-2-yl]-2-oxopyrrolidin-3-yl}ethenesulfonamide]: the Ki was below 0.2 µM.

Consider `CS(=O)(=O)c1ccccc1-c1ccc(N2CC[C@H](NS(=O)(=O)c3ccc(C#N)cc3)C2=O)c(F)c1` [Example 34], for which the Ki is below 1 µM.

With `CS(=O)(=O)c1ccccc1-c1ccc(N2CC[C@H](NS(=O)(=O)c3cc4ccc(Cl)cc4o3)C2=O)c(F)c1` [Example 36, 6-Chloro-N-{(3S)-1-[3-fluoro-2′-(methylsulfonyl)-1,1′-biphenyl-4yl]-2-oxopyrrolidin-3-yl}-1-benzofuran-2-sulfonamide], the Ki was below 0.01 µM.

Regarding `CS(=O)(=O)c1ccccc1-c1ccc(N2CC[C@H](NS(=O)(=O)c3cc4ncc(Cl)cc4s3)C2=O)c(F)c1` [Example 37, 6-Chloro-N-{(3S)-1-[3-fluoro-2′-(methylsulfonyl)-1,1′-biphenyl-yl]-2-oxopyrrolidin-3-yl}thieno[3,2b]pyridine-2-sulfonamide], the Ki was below 0.02 µM.

Take `CS(=O)(=O)c1ccccc1-c1ccc(N2CC[C@H](NS(=O)(=O)c3cc4nc(Cl)ccc4s3)C2=O)c(F)c1` [Example 38, 5-Chloro-N-{(3S)-1-[3-fluoro-2′-(methylsulfonyl)-1,1′-biphenyl-4-yl]-2-oxopyrrolidin-3-yl}thieno[3,2-b]pyridine-2-sulfonamide]: the Ki is below 0.01 µM.

In the case of `C/C(=C\S(=O)(=O)N[C@H]1CCN(c2ccc(-c3ccccc3S(C)(=O)=O)cc2F)C1=O)c1ccc(Cl)s1` [Example 39, (1E)-2-(5-Chlorothien-2-yl)-N-{(3S)-1-[3-fluoro-2′-(methylsulfonyl)-1,1′-biphenyl-4yl]-2-oxopyrrolidin-3-yl}prop-1-ene-1-sulfonamide], the inhibition constant (Ki) is below 0.01 µM.

Take `CC(C)(C)OC(=O)CN([C@H]1CCN(c2ccc(-c3ccccc3S(C)(=O)=O)cn2)C1=O)S(=O)(=O)/C=C/c1ccc(Cl)s1` [Example 40, tert-Butyl [{[(E)-2-(5-Chlorothien-2-yl)ethenyl]sulfonyl}((3S)-1-{5-[2-(methylsulfonyl)phenyl]pyridin-2-yl}-2-oxopyrrolidin-3-yl)amino]acetate]: the Ki was below 0.01 µM.

For the compound `CS(=O)(=O)c1ccccc1-c1ccc(N2CC[C@H](N(CCN3CCOCC3)S(=O)(=O)/C=C/c3ccc(Cl)s3)C2=O)nc1` [Example 42, (E)-2-(5-Chlorothien-2-yl)-N-((3S)-1-{5-[2-(methylsulfonyl)Phenyl]pyridin-2-yl}-2-oxopyrrolidin-3-yl)-N-(2-morpholin-4-ylethyl)ethenesulfonamide Formate Salt (1:1)], the Ki is below 0.01 µM.

For the compound `CS(=O)(=O)c1ccccc1-c1ccc(N2CC[C@H](N(CC(N)=O)S(=O)(=O)/C=C/c3ccc(Cl)s3)C2=O)nc1` [Example 43, 2-[{[(E)-2-(5-Chlorothien-2-yl)ethenyl]sulfonyl}((3S)-1-{5-[2-(methylsulfonyl)phenyl]pyridin-2-yl}-2-oxopyrrolidin-3-yl)amino]acetamide], the Ki is below 0.01 µM.

`CC(C)(C)OC(=O)N([C@H]1CCN(c2ccc(-c3ccccc3S(C)(=O)=O)cc2F)C1=O)S(=O)(=O)/C=C/c1ccc(Cl)s1` [Example 44, tert-Butyl [(E)-2-(5-chlorothien-2-yl)ethenyl]sulfonly{(3S)-1-[3-fluoro-2′-(methylsulfonyl)-1,1′-biphenyl-4yl]-2-oxopyrrolidin-3-yl}carbamate]: the Ki was below 0.01 µM.
